Where a name gives a salt, the structure may show the parent alone.
Molecular target: T1, Human V1b receptor (Homo sapiens, UniProt P47901)
T1 sequence (P47901 1-424): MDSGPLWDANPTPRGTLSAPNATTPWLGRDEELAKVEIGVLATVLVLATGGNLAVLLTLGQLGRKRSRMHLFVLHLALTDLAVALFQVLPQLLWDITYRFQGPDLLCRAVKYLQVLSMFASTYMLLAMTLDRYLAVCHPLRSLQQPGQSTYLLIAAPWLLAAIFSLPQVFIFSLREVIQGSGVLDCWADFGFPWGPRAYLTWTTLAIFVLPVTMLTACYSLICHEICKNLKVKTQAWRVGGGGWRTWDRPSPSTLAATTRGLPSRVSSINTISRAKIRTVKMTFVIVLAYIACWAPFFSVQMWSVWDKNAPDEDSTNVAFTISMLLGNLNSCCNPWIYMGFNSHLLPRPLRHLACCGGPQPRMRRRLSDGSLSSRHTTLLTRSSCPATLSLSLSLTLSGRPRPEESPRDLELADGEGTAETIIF
Assay: Binding test for V1b receptor ([3H]AVP displacement, crude membrane preparation)
Design: expressed in transfected cells; host or cells: 293FT cells (Invitrogen), transient expression; crude membrane preparation
Conditions: [3H]AVP 0.4 to 1 nmol/L; membranes of 293FT cells transiently expressing human V1b receptor; room temperature, 60 minutes
Experimental: Binding Test for V1b Receptor
Human V1b receptor was transiently expressed in 293FT cells (Invitrogen). The cells were collected and were homogenated in a 15 mmol/L tris-hydrochloric acid buffer (pH 7.4, containing 2 mmol/L magnesium chloride, 0.3 mmol/L ethylenediaminetetracetic acid, and 1 mmol/L glycol ether diaminetetraacetic acid). The resulting homogenate was centrifuged at 50,000×g at 4° C. for 20 minutes. The precipitate was resuspended in a 75 mmol/L tris-hydrochloric acid buffer (pH 7.4, containing 12.5 mmol/L magnesium chloride, 0.3 mmol/L ethylenediaminetetracetic acid, 1 mmol/L glycol ether diamine tetraacetic acid, and 250 mmol/L sucrose) to give a crude membrane preparation, which was stored at −80° C. until the binding test. In the binding test, the crude membrane preparation was diluted with a 50 mmol/L tris-hydrochloric acid buffer (pH 7.4, containing 10 mmol/L magnesium chloride and 0.1% bovine serum albumin), and test compound was serially diluted with DMSO. The diluted crude membrane preparation was incubated with each test compound (final concentration of 0.01 nmol/L to 1 μmol/L) and [^3H]AVP (final concentration: 0.4 to 1 nmol/L) at room temperature for 60 minutes. After the incubation, the mixture was suction filtered through a GF/C filter pretreated with 0.3% polyethyleneimine. The GF/C filter was dried, and a scintillator was added thereto. The radioactivity remaining on the filter was measured using TopCount (PerkinElmer Inc.). The radioactivity in the presence of 10 μmol/L of unlabeled AVP was defined as 0%, and the radioactivity in the absence of unlabeled AVP was defined as 100%. A dose-response curve was plotted from radioactivities in the presence of a test compound at various concentrations, and the 50% inhibitory concentration (IC50 value) of the compound was calculated.

Row | Structure (SMILES) | IC50 [nM]
1 | COc1cc(-c2nn(-c3ccc(CCN4C5CCC4COC5)cc3)c(=O)n2CC(=O)NC(C)C)ccc1F [Ca-5, 2-[3-(4-Fluoro-3-methoxyphenyl)-1-{4-[2-(3-oxa-8-azabicyclo[3.2.1]oct-8-yl)ethyl]phenyl}-5-oxo-1,5-dihydro-4H-1,2,4-triazol-4-yl]-N-(propan-2-yl)acetamide] | 4.4
2 | CCCC1CCN(CCc2ccc(-n3nc(-c4ccc(F)c(OC)c4)n(CC(=O)NC(C)C)c3=O)cc2)CC1 [Ca-12, 2-[3-(4-Fluoro-3-methoxyphenyl)-5-oxo-1-{4-[2-(4-propylpiperidin-1-yl)ethyl]phenyl}-1,5-dihydro-4H-1,2,4-triazol-4-yl]-N-(propan-2-1)acetamide] | 100 to 1000
3 | CC(C)NC(=O)Cn1c(-c2cccc(Cl)c2)nn(-c2ccc(CC(C)N3CCOCC3)cn2)c1=O (centres unmarked) [Ad-15, 2-[3-(3-Chlorophenyl)-1-{5-[2-(morpholin-4-yl)propyl]pyridin-2-yl}-5-oxo-1,5-dihydro-4H-1,2,4-triazol-4-yl]-N-(propan-2-yl)acetamide] | 5.1
4 | COc1cccc(-c2nn(-c3ccc(CCN4C5CCC4COC5)cc3)c(=O)n2CC(=O)NC(C)C)n1 [Ja-2, 2-[3-(6-Methoxypyridin-2-yl)-1-{4-[2-(3-oxa-8-azabicyclo[3.2.1]oct-8-yl)ethyl]phenyl}-5-oxo-1,5-dihydro-4H-1,2,4-triazol-4-yl]-N-(propan-2-yl)acetamide] | 20
5 | COc1cc(-c2nn(-c3ccc(CC(C)N4C5CCC4COC5)cn3)c(=O)n2CC(=O)NC(C)C)ccc1F (centres unmarked) [Cd-3, 2-[3-(4-Fluoro-3-methoxyphenyl)-1-{5-[2-(3-oxa-8-azabicyclo[3.2.1]oct-8-yl)propyl]pyridin-2-yl}-5-oxo-1,5-dihydro-4H-1,2,4-triazol-4-yl]-N-(propan-2-yl)acetamide] | 0.55
6 | COc1cc(-c2nn(-c3ccc(CCN4CCC(F)(F)CC4)cc3)c(=O)n2CC(=O)NC(C)C)ccc1F [Ca-18, 2-[1-{4-[2-(4,4-Difluoropiperidin-1-yl)ethyl]phenyl}-3-(4-fluoro-3-methoxyphenyl)-5-oxo-1,5-dihydro-4H-1,2,4-triazol-4-yl]-N-(propan-2-yl)acetamide trifluoroacetate] | 10 to 100
7 | CC(C)NC(=O)Cn1c(-c2cccc(Cl)c2)nn(-c2ccc(CCN)cc2)c1=O [Ad-21, 2-[3-(3-Chlorophenyl)-1-[4-(2-aminoethyl)phenyl]-5-oxo-1,5-dihydro-4H-1,2,4-triazol-4-yl]-N-(propan-2-yl)acetamide] | 365
8 | CC(C)NC(=O)Cn1c(-c2ccc(F)c(Cl)c2)nn(-c2ccc(CCN3CC4(COC4)C3)cc2)c1=O [Da-3, 2-[3-(3-Chloro-4-fluorophenyl)-1-{4-[2-(2-oxa-6-azaspiro[3.3]hept-6-yl)ethyl]phenyl}-5-oxo-1,5-dihydro-4H-1,2,4-triazol-4-yl]-N-(propan-2-yl)acetamide] | 32
9 | COc1cc(-c2nn(-c3ccc(CCN4CCCC4)cc3)c(=O)n2CC(=O)NC(C)C)ccc1F [Ca-24, 2-[3-(4-Fluoro-3-methoxyphenyl)-5-oxo-1-{4-[2-(pyrrolidin-1-yl)ethyl]phenyl}-1,5-dihydro-4H-1,2,4-triazol-4-yl]-N-(propan-2-yl)acetamide formate] | 10 to 100
10 | COc1cc(-c2nn(-c3ccc(CCN4C(C)COCC4C)cc3)c(=O)n2CC(=O)NC(C)C)ccc1F (centres unmarked) [Ca-21, 2-[1-{4-[2-(3,5-Dimethylmorpholin-4-yl)ethyl]phenyl}-3-(4-fluoro-3-methoxyphenyl)-5-oxo-1,5-dihydro-4H-1,2,4-triazol-4-yl]-N-(propan-2-yl)acetamide trifluoroacetate] | 10 to 100
11 | COc1cc(-c2nn(-c3ccc(CCN4CC=CCC4)cc3)c(=O)n2CC(=O)NC(C)C)ccc1F [Ca-7, 2-[1-{4-[2-(3,6-Dihydropyridin-1(2H)-yl)ethyl]phenyl}-3-(4-fluoro-3-methoxyphenyl)-5-oxo-1,5-dihydro-4H-1,2,4-triazol-4-yl]-N-(propan-2-yl)acetamide] | 10 to 100
12 | COc1cccc(-c2nn(-c3ccc(CC(C)N4C5CCC4COC5)cc3)c(=O)n2CC(=O)NC(C)(C)C)c1 (centres unmarked) [Bd-3, N-Tert-Butyl-2-[3-(3-methoxyphenyl)-1-{4-[2-(3-oxa-8-azabicyclo[3.2.1]oct-8-yl)propyl]phenyl}-5-oxo-1,5-dihydro-4H-1,2,4-triazol-4-yl]acetamide] | 0.21
13 | CC(C)NC(=O)Cn1c(-c2cccc(Cl)c2)nn(-c2ccc(CCN3CCOCC3)c(F)c2)c1=O [Ad-7, 2-[3-(3-Chlorophenyl)-1-{3-fluoro-4-[2-(morpholin-4-yl)ethyl]phenyl}-5-oxo-1,5-dihydro-4H-1,2,4-triazol-4-yl]-N-(propan-2-yl)acetamide] | 3.8
14 | COc1cc(-c2nn(-c3ccc(CCN4CCC(C(F)(F)F)CC4)cc3)c(=O)n2CC(=O)NC(C)C)ccc1F [Ca-19, 2-[3-(4-Fluoro-3-methoxyphenyl)-5-oxo-1-(4-{2-[4-(trifluoromethyl)piperidin-1-yl]ethyl}phenyl)-1,5-dihydro-4H-1,2,4-triazol-4-yl]-N-(propan-2-yl)acetamide trifluoroacetate] | 100 to 1000
15 | CC(C)(C)NC(=O)Cn1c(-c2cccc(Cl)c2)nn(-c2ccc(CCN3C4CCC3COC4)cn2)c1=O [Ad-18, N-Tert-Butyl-2-[3-(3-chlorophenyl)-1-{5-[2-(3-oxa-8-azabicyclo[3.2.1]oct-8-yl)ethyl]pyridin-2-yl}-5-oxo-1,5-dihydro-4H-1,2,4-triazol-4-yl]acetamide] | 2.6
16 | COc1cc(-c2nn(-c3ccc(CCN4CCC(NC(C)=O)CC4)cc3)c(=O)n2CC(=O)NC(C)C)ccc1F [Ca-17, 2-[1-(4-{2-[4-(Acetylamino)piperidin-1-yl]ethyl}phenyl)-3-(4-fluoro-3-methoxyphenyl)-5-oxo-1,5-dihydro-4H-1,2,4-triazol-4-yl]-N-(propan-2-yl)acetamide] | 100 to 1000
17 | COc1cccc(-c2nn(-c3ccc(CCN4CCOCC4)cc3)c(=O)n2CC(=O)NC(C)C)n1 [Ja-1, 2-[3-(6-Methoxypyridin-2-yl)-1-{4-[2-(morpholin-4-yl)ethyl]phenyl}-5-oxo-1,5-dihydro-4H-1,2,4-triazol-4-yl]-N-(propan-2-yl)acetamide] | 16
18 | CC(C)NC(=O)Cn1c(-c2ccccc2)nn(-c2ccc(CCN3CCOCC3)cc2)c1=O [Ga-1, 2-(1-{4-[2-(Morpholin-4-yl)ethyl]phenyl}-5-oxo-3-phenyl-1,5-dihydro-4H-1,2,4-triazol-4-yl)-N-(propan-2-yl)acetamide] | 114
19 | COc1cccc(-c2nn(-c3ccc(CCN4C5CCC4COC5)cc3)c(=O)n2CC(=O)NC(C)C)c1 [Ba-3, 2-[3-(3-Methoxyphenyl)-1-{4-[2-(3-oxa-8-azabicyclo[3.2.1]oct-8-yl)ethyl]phenyl}-5-oxo-1,5-dihydro-4H-1,2,4-triazol-4-yl]-N-(propan-2-yl)acetamide] | 9.4
20 | CC(C)NC(=O)Cn1c(-c2cccc(Cl)c2)nn(-c2ccc(CCN3C4CCC3CC(O)C4)cn2)c1=O (centres unmarked) [Ab-4, 2-[3-(3-Chlorophenyl)-1-{5-[2-(3-hydroxy-8-azabicyclo[3.2.1]oct-8-yl)ethyl]pyridin-2-yl}-5-oxo-1,5-dihydro-4H-1,2,4-triazol-4-yl]-N-(propan-2-yl)acetamide] | 20
21 | O=C(Cn1c(-c2cccc(Cl)c2)nn(-c2ccc(CCN3CCOCC3)cc2)c1=O)NC1COC1 [Ad-5, 2-[3-(3-Chlorophenyl)-1-{4-[2-(morpholin-4-yl)ethyl]phenyl}-5-oxo-1,5-dihydro-4H-1,2,4-triazol-4-yl]-N-(oxetan-3-yl)acetamide] | 97
22 | COc1cc(-c2nn(-c3ccc(CCN4CCSCC4)cc3)c(=O)n2CC(=O)NC(C)C)ccc1F [Ca-8, 2-[3-(4-Fluoro-3-methoxyphenyl)-5-oxo-1-{4-[2-(thiomorpholin-4-yl)ethyl]phenyl}-1,5-dihydro-4H-1,2,4-triazol-4-yl]-N-(propan-2-yl)acetamide] | < 10
23 | COc1cc(-n2nc(-c3cccc(Cl)c3)n(CC(=O)NC(C)C)c2=O)ccc1CCN1C2CCC1COC2 [Ad-10, 2-[3-(3-Chlorophenyl)-1-{3-methoxy-4-[2-(3-oxa-8-azabicyclo[3.2.1]oct-8-yl)ethyl]phenyl}-5-oxo-1,5-dihydro-4H-1,2,4-triazol-4-yl]-N-(propan-2-yl)acetamide] | 1.3
